How the values were obtained:
Assay type in all cases: in vivo
cynomolgus monkey = experiment: Repeat dose (28 day) toxicity study in cynomolgus monkey; details: 28 day repeat dose, 160 mg/kg/day
Experimental: (§1) Repeated dose (28 day) toxicity studies were conducted using ANEB-001 in two species, rat and primate, selected on the basis of acceptable bioavailability and comparison of metabolite profiles with those in human liver microsomes.

[1] = Single ascending oral dose pharmacokinetics in humans; details: human plasma, single oral dose 1-200 mg
Experimental: Human subjects were assigned to six different dosage groups of ANEB-001. Groups assigned to receive dosages of 1 mg, 5 mg, 25 mg, 100 mg, or 200 mg had six subjects each, and the 150 mg dosage group had four subjects. ANEB-001 was administered orally to subjects in each group, and the plasma concentration of ANEB-001 in each subject was measured as a function of time after dosing (FIG. 2).

C57 mice = experiment: Reversal of THC-induced hypolocomotion in mice; details: 30 min pre-test, THC 3 mg/kg ip 10 min pre-test
Experimental: Reversal of THC-induced hypolocomotion in mice: Six C57 mice (Charles River, Wilmington, Mass.) were administered Δ9-tetrahydrocannabinol (THC) 3 mg/kg ip, 10 min pre-test. […] In this apparatus, four qualitatively different measures of locomotor activity are automatically scored. […] The magnitude of the effect is similar to that elicited by rimonabant given at 3 mg/kg po, and given 30 min pre-test.

rat = experiment: Repeated dose (28 day) toxicity study in rat; details: 28 day repeated dose
Experimental: as §1

SMILES | adverse effects at the highest dose level studied (cynomolgus monkey) | Tmax [1] [h] | half-life ([1]; read-out: terminal elimination half-life) [h] | action of THC on the total active time parameter of locomotor measures (C57 mice; 30 mg/kg orally, 15 min in locomotor activity cages, FIG. 1) | no observed adverse effect level (rat) [mg/kg/day] | hepatic findings (rat; 75 mg/kg/day) | adverse effects at the highest dose tested (rat; highest dose 75 mg/kg/day) | magnitude of the effect on THC-induced hypolocomotion (total active time), compared with ANEB-001 (C57 mice; 3 mg/kg po)
CC(C)(C)NC(=O)N1CC(O[C@H](c2ccc(Cl)cc2)c2ccccc2C(F)(F)F)C1 [ANEB-001, 3-[(R)-2-(trifluoromethyl)-4′-chlorobenzhydryloxy]-N-(tert-butyl)azetidine-1-carboxamide] | no adverse effects were observed | 1 to 1.6 | ≤ 456 | significantly reversed | 75 | hepatic changes consistent with an adaptive response | No adverse effects were observed | –
Cc1c(C(=O)NN2CCCCC2)nn(-c2ccc(Cl)cc2Cl)c1-c1ccc(Cl)cc1 [rimonabant, reference compound] | – | – | – | – | – | – | – | similar

Source: patent US11141404B1, “Formulations and methods for treating acute cannabinoid overdose” (Anebulo Pharmaceuticals, Inc., priority 2020, dated 2021)
